Assay results taken from patent US20260265199A1, “CRYSTALLINE FORMS OF (R)-2-AMINO-5-(4-(2-(3,5-DIFLUOROPHENYL)-2-HYDROXYACETAMIDO)-2-METHYLPHENYL)-N-ISOPROPYLNICOTINAMIDE AND METHODS FOR USING THE SAME” (HIBERCELL, INC., priority 2023, published 2026).
Structures can show the parent of a compound that is named as a salt. Where two headings read alike, the source gives them in different places.

Assay: Phase 1a study: pharmacokinetics after oral BID dosing in subjects with advanced solid tumors
Assay type: in vivo, human
Conditions: for Tmax / Cmax / half-life / AUC(0-t) / Vd/F / AUC(0-inf) / AUC: human, in vivo; for Vd/F: read-out: Vz/F; for AUC: read-out: AUC0-τ
Protocol: This example describes a first in human, Phase 1a, multi-center, open-label study to establish the maximum tolerated dose (MTD) and evaluate the safety and tolerability of oral dosing of Form A of the hemi-fumarate salt of the compound of formula (I) (Example 11) in a dose-escalating fashion. Form A of the hemi-fumarate salt was orally administered BID every day with food or within 30 minutes of completing a meal, starting at 25 mg, with doses escalating to 50, 100, 200, 400, 600, and 900 mg BID as safety allows for each 3-week treatment cycle.
Up to 36 qualified subjects at 3 to 5 US sites, who have specific tumor types of renal cell carcinoma (RCC), gastric cancer (GC), metastatic breast cancer (MBC), small cell lung cancer (SCLC), and other solid tumors (e.g., non-small cell lung cancer, colorectal cancer, carcinoma of unknown primary) with the exception of rapidly progressing neoplasms (e.g., pancreatic cancer, glioblastoma, hepatocellular carcinoma) received Form A of the hemi-fumarate salt. Every effort was made to ensure approximately 50% of all subjects enrolled were subjects with RCC and GC. The starting dose level was 25 mg twice daily (BID), escalating to 50, 100, and 200 mg BID as safety allows, following the Bayesian Optimal Interval (BOIN) design. The safety monitoring committee (SMC) evaluated the dose-limiting toxicities (DLTs) and cumulative safety and PK data at the end of each cohort. Based on the SMC recommendations after a comprehensive review of PK and safety data for 200 mg BID dose, higher dose levels were evaluated, starting with 400 mg BID. The dose escalated to 600 mg and then 900 mg following the BOIN design starting with 1 subject at each escalated dose, until the MTD was reached or the sponsor or SMC declares the dose most appropriate for clinical development. This Phase 1a will be expanded into a Phase 1b/2a study through a protocol amendment and will then assess the dose and tumor type(s) selected in Phase 1a as the most appropriate for further clinical development. Subjects were dosed until unacceptable toxicity, disease progression per immune-related Response Evaluation Criteria in Solid Tumors (iRECIST), subject withdrawal, any other administrative reasons, or after 2 years of treatment, whichever occurs first. Efficacy was assessed via Response Evaluation Criteria in Solid Tumors 1.1 (RECIST 1.1); computed tomography (CT) scans were conducted every 6 weeks. Safety, including occurrence of dose-limiting toxicities (DLTs), pharmacokinetics (PK), and biomarker parameters were also assessed.
Form A of the hemi-fumarate salt was orally administered BID with food or within 30 minutes of completing a meal, starting at 25 mg, with doses escalating to 50, 100, 200, 400, 600 and 900 mg BID as safety allowed. Up to 24 subjects were enrolled to ensure 12 subjects completed the study at the estimated MTD of Form A of the hemi-fumarate salt. Dosing occurred in 3-week cycles. Subjects spent Cycle 1/Day 1 (C1D1) in the clinic followed by an overnight stay for safety monitoring and PK sampling. Subjects were hospitalized for administration of first 3 doses: CID1 am and pm doses, and Cycle 1/Day 2 (C1D2) am dose; on Days 8, 15, and 21 the am dose was taken in the clinic after the planned PK samples. All other doses were self administered at home.
Results of Cohorts 1 to 6 the study are detailed in Tables 47-50 below.

[1] = po, 300 mg, 300 mg single oral dose, Cycle 1 Day 1, geometric mean, N = 4
[2] = po, 300 mg, 300 mg twice daily oral, Cycle 1 Day 21, point estimate, N = 1
[3] = po, 400 mg, 400 mg single oral dose, Cycle 1 Day 1, geometric mean, N = 3
[4] = po, 600 mg, 600 mg single oral dose, Cycle 1 Day 1, point estimate, N = 1
[5] = po, 600 mg, 600 mg twice daily oral, Cycle 1 Day 21, point estimate, N = 1

Cc1cc(NC(=O)[C@H](O)c2cc(F)cc(F)c2)ccc1-c1cnc(N)c(C(=O)NC(C)C)c1 [Form A of the hemi-fumarate salt, (R)-2-amino-5-(4-(2-(3,5-difluorophenyl)-2-hydroxyacetamido)-2-methylphenyl)-N-isopropylnicotinamide]
Tmax (po, 200 mg, 200 mg twice daily oral, Cycle 1 Day 21, median, N = 4): 5 h | Cmax [1]: 1140 ng/mL | half-life (po, 300 mg, 300 mg single oral dose, Cycle 1 Day 1, geometric mean, N = 4, interpret with caution, terminal elimination phase not well captured, read-out: t1/2 (converted)): 6.88 h | AUC(0-t) (po, 300 mg, 300 mg single oral dose, Cycle 1 Day 1, geometric mean, N = 4, read-out: AUC0-12): 8610 ng·h/mL | AUC(0-t) (po, 300 mg, 300 mg single oral dose, Cycle 1 Day 1, geometric mean, N = 4, read-out: AUC0-last): 8610 ng·h/mL | Vd/F [1]: 619 L | Tmax (po, 300 mg, 300 mg single oral dose, Cycle 1 Day 1, median, N = 4): 7 h | Cmax [2]: 3030 ng/mL | Tmax [2]: 8 h | AUC(0-t) (po, 300 mg, 300 mg twice daily oral, Cycle 1 Day 21, point estimate, N = 1, read-out: AUC0-last): 28400 ng·h/mL | Cmax [3]: 649 ng/mL | half-life (po, 400 mg, 400 mg single oral dose, Cycle 1 Day 1, geometric mean, N = 3, interpret with caution, terminal elimination phase not well captured, read-out: t1/2 (converted)): 6.79 h | AUC(0-t) (po, 400 mg, 400 mg single oral dose, Cycle 1 Day 1, geometric mean, N = 3, read-out: AUC0-12): 3830 ng·h/mL | AUC(0-t) (po, 400 mg, 400 mg single oral dose, Cycle 1 Day 1, geometric mean, N = 3, read-out: AUC0-last): 3830 ng·h/mL | Vd/F [3]: 240 L | Tmax (po, 400 mg, 400 mg single oral dose, Cycle 1 Day 1, median, N = 3): 2 h | half-life (po, 400 mg, 400 mg twice daily oral, Cycle 1 Day 21, N = 2, interpret with caution, terminal elimination phase not well captured, read-out: t1/2 (converted)): 10.8 h | Vd/F (po, 400 mg, 400 mg twice daily oral, Cycle 1 Day 21, N = 2): 122 L | Cmax (po, 400 mg, 400 mg twice daily oral, Cycle 1 Day 21, geometric mean, N = 2): 3680 ng/mL | AUC(0-t) (po, 400 mg, 400 mg twice daily oral, Cycle 1 Day 21, geometric mean, N = 2, read-out: AUC0-last): 30800 ng·h/mL | half-life (po, 400 mg, 400 mg twice daily oral, Cycle 1 Day 21, geometric mean, N = 2, read-out: t1/2, eff (converted)): 38.5 h | Tmax (po, 400 mg, 400 mg twice daily oral, Cycle 1 Day 21, median, N = 2): 2.5 h | Cmax [4]: 1460 ng/mL | Tmax [4]: 2 h | AUC(0-t) (po, 600 mg, 600 mg single oral dose, Cycle 1 Day 1, point estimate, N = 1, read-out: AUC0-12): 11600 ng·h/mL | AUC(0-t) (po, 600 mg, 600 mg single oral dose, Cycle 1 Day 1, point estimate, N = 1, read-out: AUC0-last): 11600 ng·h/mL | Cmax [5]: 5990 ng/mL | Tmax [5]: 12 h | AUC(0-t) (po, 600 mg, 600 mg twice daily oral, Cycle 1 Day 21, point estimate, N = 1, read-out: AUC0-last): 60800 ng·h/mL | half-life (po, 600 mg, 600 mg twice daily oral, Cycle 1 Day 21, point estimate, N = 1, read-out: t1/2, eff (converted)): 39.1 h | AUC(0-inf) (25 mg single oral dose, Cycle 1 Day 1, geometric mean, N = 3): 2200 ng·h/mL | AUC (25 mg twice daily oral, Cycle 1 Day 21, geometric mean, N = 3): 4110 ng·h/mL | AUC(0-inf) (50 mg single oral dose, Cycle 1 Day 1, geometric mean, N = 3): 5650 ng·h/mL | AUC (50 mg twice daily oral, Cycle 1 Day 21, geometric mean, N = 3): 9070 ng·h/mL | AUC (100 mg twice daily oral, Cycle 1 Day 21, geometric mean, N = 3): 11700 ng·h/mL | AUC(0-inf) (200 mg single oral dose, Cycle 1 Day 1, geometric mean, N = 5): 18000 ng·h/mL | AUC (200 mg twice daily oral, Cycle 1 Day 21, geometric mean, N = 4): 27200 ng·h/mL | AUC(0-inf) (300 mg single oral dose, Cycle 1 Day 1, geometric mean, N = 4): 4810 ng·h/mL | AUC (300 mg twice daily oral, Cycle 1 Day 21, point estimate, N = 1): 28400 ng·h/mL | half-life (300 mg twice daily oral, Cycle 1 Day 21, point estimate, N = 1, read-out: t1/2, eff (converted)): 19.4 h | AUC(0-inf) (400 mg single oral dose, Cycle 1 Day 1, geometric mean, N = 3): 16300 ng·h/mL | AUC (400 mg twice daily oral, Cycle 1 Day 21, geometric mean, N = 2): 51200 ng·h/mL | AUC (600 mg twice daily oral, Cycle 1 Day 21, point estimate, N = 1): 60800 ng·h/mL | Exposure versus dose (oral BID with food, 25 mg to 600 mg dose range, subjects with advanced solid tumors): increased roughly proportional to the increase in dose | Time to steady-state (oral BID, based on similar trough concentrations on Cycle 1, Days 8, 15 and 21): achieved by Cycle 1, Day 8
